Measurements as given in US20140045809A1, “CORROLES FOR NEUROPROTECTION AND NEURORESCUE” (priority 2008, published 2014).
Entries after “also recorded” stand apart in the source; their conditions may differ.

Assays:
[1] = In-vivo fluorescence imaging of corrole in nude mice (IVIS 200); settings: 19 mg/kg i.p., 30 min after injection
Procedure: For obtaining information about in-vivo localization and distribution of the various corroles that have sulfonic acid head groups, in-vivo imaging of corroles in whole animals was performed. Of particular interest was to examine whether the leading corrole compounds unlike most porphyrins are able to cross the blood brain barrier (BBB).
The in vivo imaging experiments were performed as follows. Nude mice received i.p. injections of the fluorescent gallium(III) corrole 1C-Ga and were examined by IVIS 200 imaging system [Xenogen].

RIN-m cells = test: Cellular uptake of fluorescent corrole, fluorescence microscopy, RIN-m cells; type: cell-based; settings: 20 μM, half an hour at 37° C.
From the text: (§1) For testing cellular membrane penetration, as well as uptake and accumulation of corroles in the cells, we took advantage of the fluorescence property of an appropriate corrole. For this purpose we used a fluorescent corrole complex (1C-Ga) that is structurally identical to the catalytic compounds utilized in the cytoprotection/cytorescue experiments, except that the chelated metal is gallium(III) rather than iron(III) in 1C-Fe or manganese(III) in 1C-Mn. The results are shown in FIGS. 21A-D for RIN-m (insulinoma) cell line and FIGS. 22A-D for SH-SY5Y (neuroblastoma) cell line.
(§2) To visualize intracellular corrole we used fluorescence microscopy. Neuroblastoma SH-SY5Y cells and insulinoma RIN-m cells were plated on coverslips. At 24 h after plating, corrole 1C-Ga was added directly to the cell media and incubated for half an hour at 37° C. The cells were then aspirated from the media and washed with phosphate buffer to eliminate background signal due to extra cellular corrole. Fixation with formaldehyde was performed. Coverslips with mounting medium (with DAPI) were directly placed on slides and viewed by fluorescence microscopy; the results are shown in FIGS. 21, 22.

SH-SY5Y cells = test: Cellular uptake of fluorescent corrole, fluorescence microscopy, SH-SY5Y cells; type: cell-based, human; settings: 20 μM, half an hour at 37° C.
From the text: as §1, §2

**Q.** Which “BBB penetration / accumulation in brain area” value [1] does the source give for “2,17-bis(sulfonato)-5,10,15-tris(pentafluorophenyl)-corrolato galium(III) [1C-Ga]” here?
**A.** possible BBB penetration and accumulation of the corrole complex in brain area; also recorded: indicative of the crossing of the blood brain barrier (BBB)

**Q.** And the “cellular uptake and accumulation” value (RIN-m cells)?
**A.** accumulation inside the cells

**Q.** And the “cellular uptake and accumulation” value (SH-SY5Y cells)?
**A.** accumulation inside the cells
